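Assay format: 96-well plates, 48-hour exposure. Abbreviation: GI50, concentration required for 50% inhibition of growth.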 Calls of active or inactive are those of the source. No stated cut-off is given here; in the data, active = GI50 up to about 1.1 µM and inactive = higher.
How the values were obtained:
Experiment in all cases: DTP human tumour cell line panel, 48 h
HOP-18 = tested on: HOP-18
RXF 631 = tested on: RXF 631
KM-20L2 = tested on: KM-20L2
LXFL 529 = tested on: LXFL 529
DMS-273 = tested on: DMS-273
SNB-78 = tested on: SNB-78
DLD-1 = tested on: DLD-1
XF498 = tested on: XF498
M19-MEL = tested on: M19-MEL

Measured: GI50

CCC1CN2CCc3cc(OC)c(OC)cc3C2CC1CC1c2cc(OC)c(OC)cc2CCN1C(=O)C1CCCN1C(=O)OCc1ccccc1 (centres undefined)
inactive: HOP-18 23.1 µM | RXF 631 18.5 µM | KM-20L2 16.7 µM | LXFL 529 16.3 µM | DMS-273 16.3 µM | SNB-78 16 µM | DLD-1 15.6 µM | XF498 16.6 µM | M19-MEL 15.5 µM

CC(O)c1ccc(C(O)/C(=N\NC(=O)c2ccncc2)c2nc3ccc([N+](=O)[O-])cc3nc2O)cc1 (centres undefined)
inactive: RXF 631 > 100 µM | KM-20L2 33.3 µM | LXFL 529 54.6 µM | DMS-273 83.8 µM | SNB-78 > 100 µM | DLD-1 > 100 µM | XF498 > 100 µM | M19-MEL > 100 µM

CCOc1ccccc1NC(=O)C(=O)CC(=O)c1sc(Nc2nnc(-c3ccc(Cl)c(Cl)c3)o2)nc1C
inactive: HOP-18 > 100 µM | KM-20L2 > 100 µM | LXFL 529 > 100 µM | DMS-273 59 µM | SNB-78 > 100 µM | DLD-1 88.7 µM | M19-MEL > 100 µM

O=C1c2ccccc2C2(O)c3cc4ccccc4cc3OC12O (centres undefined)
inactive: HOP-18 69.7 µM | KM-20L2 > 100 µM | LXFL 529 55.5 µM | DMS-273 46.8 µM | SNB-78 46.7 µM | DLD-1 > 100 µM | M19-MEL 47.2 µM

O=C(NCc1ccncc1)C1COc2cc(-c3cc(=O)c4ccccc4o3)ccc2O1 (centres undefined)
inactive: KM-20L2 > 100 µM | LXFL 529 > 100 µM | SNB-78 > 100 µM | DLD-1 > 100 µM | XF498 > 100 µM | M19-MEL > 100 µM

CC(=O)NN1C(=O)C(Cc2ccccc2)c2ccccc21 (centres undefined)
inactive: HOP-18 > 100 µM | RXF 631 > 100 µM | KM-20L2 > 100 µM | DMS-273 > 100 µM | SNB-78 > 100 µM | DLD-1 > 100 µM | XF498 > 100 µM | M19-MEL > 100 µM

CC(=O)O[C@H]1CCC2[C@@H]3CCC4C(=O)c5oncc5C[C@]4(C)C3CC[C@@]21C (some centres undefined)
inactive: KM-20L2 > 100 µM | LXFL 529 > 100 µM | DMS-273 > 100 µM | SNB-78 49 µM | DLD-1 > 100 µM | XF498 > 100 µM | M19-MEL > 100 µM

COc1ccc(OC)c(NC(=O)C(=O)CC(=O)c2sc(-n3nc(-c4ccccc4)cc3-c3ccccc3)nc2C)c1
inactive: RXF 631 > 100 µM | KM-20L2 > 100 µM | LXFL 529 > 100 µM | DMS-273 > 100 µM | SNB-78 > 100 µM | DLD-1 > 100 µM | M19-MEL > 100 µM

N/C(=N\O)N/N=C\c1c2ccccc2c(Cl)c2ccccc12
inactive: HOP-18 2.45 µM | KM-20L2 2.02 µM | DMS-273 1.98 µM | SNB-78 12 µM | DLD-1 5.79 µM | XF498 16.8 µM | M19-MEL 6.61 µM

COC1(OC)CC2C(=O)N(Cc3ccccc3)C1C=C2S(=O)(=O)c1ccccc1 (centres undefined)
inactive: HOP-18 17.1 µM | KM-20L2 18.8 µM | LXFL 529 15.6 µM | SNB-78 21.8 µM | DLD-1 12.7 µM | XF498 17.8 µM | M19-MEL 16 µM

CC1(C2COC(=O)C2)SCCCS1 (centres undefined)
inactive: HOP-18 > 100 µM | KM-20L2 > 100 µM | LXFL 529 > 100 µM | DMS-273 > 100 µM | DLD-1 > 100 µM | XF498 > 100 µM | M19-MEL > 100 µM

COS(=O)c1cc(Cl)cc(Cl)c1OC(=O)CSSCC(=O)Oc1c(Cl)cc(Cl)cc1S(=O)OC (centres undefined)
inactive: HOP-18 21.6 µM | RXF 631 20.3 µM | KM-20L2 27.3 µM | LXFL 529 21 µM | DMS-273 12.4 µM | SNB-78 22.9 µM | DLD-1 15.3 µM | M19-MEL 20 µM

N#C/C(=C\c1ccc2[nH]ccc2c1)C(=O)NCCCCNC(=O)/C(C#N)=C/c1ccc2[nH]ccc2c1
inactive: KM-20L2 > 100 µM | LXFL 529 > 100 µM | DMS-273 > 100 µM | SNB-78 > 100 µM | DLD-1 > 100 µM | XF498 > 100 µM | M19-MEL > 100 µM

N#C/C(=C\c1ccccc1F)C(=O)c1ccccc1
inactive: KM-20L2 > 100 µM | LXFL 529 > 100 µM | DMS-273 > 100 µM | SNB-78 > 100 µM | XF498 > 100 µM | M19-MEL > 100 µM

CCCCCCCCCCCC(=O)OCCOCCOCCOCCOCCOCc1ccc(OC)cc1
inactive: HOP-18 > 100 µM | RXF 631 > 100 µM | KM-20L2 > 100 µM | LXFL 529 > 100 µM | DMS-273 > 100 µM | SNB-78 > 100 µM | DLD-1 > 100 µM | M19-MEL > 100 µM

CC(C)(C)c1ccc2c(c1)S(=O)(=O)Nc1ccccc1NS(=O)(=O)c1cc(C(C)(C)C)ccc1OCCOCCOCCO2
inactive: HOP-18 > 100 µM | RXF 631 97.3 µM | DMS-273 > 100 µM | SNB-78 59.8 µM | DLD-1 > 100 µM | M19-MEL > 100 µM

CCSc1nc(-c2ccc(OC)cc2)c(C#N)c(=O)n1C1OCC(OC(C)=O)C(OC(C)=O)C1OC(C)=O (centres undefined)
inactive: HOP-18 30 µM | KM-20L2 > 100 µM | LXFL 529 44.6 µM | DMS-273 > 100 µM | SNB-78 > 100 µM | DLD-1 > 100 µM | M19-MEL > 100 µM

CC(C)(C)C(=O)OCC(COC(=O)C(C)(C)C)[N+](=O)[O-]
inactive: LXFL 529 > 100 µM | DMS-273 > 100 µM | DLD-1 > 100 µM | XF498 > 100 µM | M19-MEL > 100 µM

CCN(CC)C(=O)c1c(Cl)cc(N(CC)CC)oc1=O
inactive: HOP-18 > 100 µM | KM-20L2 > 100 µM | LXFL 529 > 100 µM | DMS-273 > 100 µM | SNB-78 > 100 µM | DLD-1 > 100 µM | XF498 > 100 µM | M19-MEL > 100 µM

CCSC(SCC)c1cc2c(cc1Br)OCO2
inactive: RXF 631 13.1 µM | KM-20L2 11.5 µM | DMS-273 3.7 µM | SNB-78 26.5 µM | DLD-1 41 µM | XF498 20.4 µM | M19-MEL 19.1 µM

CC(=O)OCC1OC(n2c(-c3ccc(N)cc3)cc(-c3ccco3)c(C#N)c2=O)C(OC(C)=O)C(OC(C)=O)C1OC(C)=O (centres undefined)
inactive: HOP-18 > 50 µM | RXF 631 44.3 µM | KM-20L2 > 50 µM | LXFL 529 11.1 µM | DMS-273 5.26 µM | SNB-78 > 50 µM | DLD-1 > 50 µM | M19-MEL 18.7 µM

ClC1=C(Cl)C(Cl)(Cl)c2c3c(c4c(c21)C(Cl)(Cl)C(Cl)=C4Cl)C(Cl)(Cl)C(Cl)=C3Cl
inactive: KM-20L2 > 100 µM | LXFL 529 > 100 µM | DMS-273 > 100 µM | XF498 > 100 µM
